Source: US20250161299A1, “ORAL PCLX-001 IN THE TREATMENT OF HUMAN CANCER” (PACYLEX PHARMACEUTICALS INC., priority 2022, published 2025)
Entries after “also recorded” stand apart in the source; their conditions may differ. Read-outs that look alike come from different tables or passages of the source.

Legend:
[1] = GLP non-clinical safety testing; cited from earlier work
[2] = tested on: Stomach cultured human cancer cells; settings: second panel, mean among sensitive cell lines, read-out: IC50 mean +/− SD; cited from earlier work
[3] = tested on: Neuroblastoma cultured human cancer cells; settings: second panel, mean among sensitive cell lines, read-out: IC50 mean +/− SD; cited from earlier work
[4] = tested on: Lymphoma cultured human cancer cells; settings: mean among sensitive cell lines, cited from earlier work; for IC50: read-out: IC50 mean +/− SD
[5] = tested on: Ovary cultured human cancer cells; settings: second panel, mean among sensitive cell lines, read-out: IC50 mean +/− SD; cited from earlier work
[6] = tested on: Bruton tyrosine kinase (BTK); settings: models of human lymphoma; cited from earlier work
[7] = tested on: Sarcoma cultured human cancer cells; settings: second panel, mean among sensitive cell lines, read-out: IC50 mean +/− SD; cited from earlier work
[8] = tested on: Prostate cultured human cancer cells; settings: second panel, mean among sensitive cell lines, read-out: IC50 mean +/− SD; cited from earlier work
[9] = tested on: Brain cultured human cancer cells; settings: second panel, mean among sensitive cell lines, read-out: IC50 mean +/− SD; cited from earlier work
[10] = Phase I trial toxicity assessment (dose limiting toxicities, CTCAE version 5.0); type: in vivo, human; settings: for hematopoietic profile and biochemistry / protocol defined dose limiting toxicities: 20 mg oral daily
Description: The subjects were assessed for toxicity using daily diary entries, clinical assessments at baseline, day 8, day 15, day 22, and day 28. Dose limiting toxicities were DLTs defined as the following cycle 1 CTCAE version 5.0 adverse events: Gr 4 platelets, Gr≥3 platelets with bleeding and/or transfusions, Gr 4 ANC for ≥7 days, Gr≥3 febrile neutropenia, and Gr≥3 non-hematological toxicity.

[11] = Oral bioavailability in animal models; type: in vivo
[12] = Phase I trial plasma pharmacokinetics, two-compartment model (PK Solver 2.0); type: in vivo; settings: human, oral, 20 mg
Description: A different pharmacokinetic modeling program was used in the publication PK Solver 2.0 freeware (https://www.boomer.org/boomer/software/pksolver.zip; accessed 26 Nov. 2021) was used to determine the single dose pharmacokinetic parameters using a two-compartment model. […] As noted above, non-compartmental pharmacokinetic analysis was performed using Phoenix WinNonlin 8.3 using trapezoidal rule and linear up log down methodology. WinNonlin was allowed to pick optimal terminal phases.
Pharmacokinetic analysis was conducted as described above. […] These parameters are all supportive of a single daily oral dosing schedule for PCLX-001.

[13] = Allometric scaling from animal maximally tolerated doses to predict human daily oral MTD (www.truedose.app)
Description: The allometric scaling is based on toxicity, and the toxicity is that which establishes the Maximally Tolerated Dose (MTD) in animal studies. In mice, one toxicity study established the MTD to be 35 mg/kg. […]. […] It was not expected that, as shown herein, doses markedly lower than 180 mg daily in humans would have anticancer effects.
(§1) Allometric scaling is a means by which PK results from animal studies can be used to predict human drug exposure for a range of drug doses. In this case, allometric scaling was performed using representative values from the PK studies with daily oral PCLX-001 administration for 14 or 28 days in non-human species. These inputs were analyzed with www.truedose.app to predict the Maximally Tolerated Dose we would see in this phase one clinical trial (FIG. 2). […]

implanted human tumors = assay: Anticancer efficacy in mice bearing implanted human tumors; type: in vivo, mouse; settings: in any given experiment
[14] = tested on: cancer cells (hematologic, lymphoma and solid cancer cell lines); settings: tissue culture; hematological and solid cancer cell lines; cited from earlier work
[15] = PK and maximally tolerated dose, daily oral administration, mouse; type: in vivo
Description: The allometric scaling is based on toxicity, and the toxicity is that which establishes the Maximally Tolerated Dose (MTD) in animal studies. In mice, one toxicity study established the MTD to be 35 mg/kg. […] It was not expected that, as shown herein, doses markedly lower than 180 mg daily in humans would have anticancer effects.
[…]. Possible explanations for this finding include hysteresis loops (7), and flip-flop pharmacokinetics (7).
as §1

[16] = tested on: DLBCL / soft tissue sarcoma in patients; assay: Phase I trial efficacy assessment (CT/PET imaging, Lugano criteria, RECIST); type: in vivo, human
Description: Patients 1 and 2 had baseline cross sectional and PET imaging, and patient 3 had baseline cross sectional imaging. Protocol defined imaging was CT every 2 cycles and PET every 6 cycles or as clinically indicated. Evaluation of response was by the Lugano classification criteria for the evaluation of non-Hodgkin lymphoma, and […] for the evaluation of soft tumors. Computed tomography was performed on patient 2 on two occasions, immediately prior to treatment (pre-treatment scan obtained Oct. 29, 2021) and after two 28-day cycles of oral PCLX-001 at a daily dose of 20 mg by mouth (post-treatment scan obtained Dec. 30, 2021). Both scans were done on the same scanner using the same techniques including the use of intravenous contrast dye. The three pairs of pre and post treatment scans are of the same cross section of the patient, in order to identify a clinical trial target lesion of a liver metastasis in the subcapsular region of segment five of the liver. […] FIG. 2A-4F.

human NMT2 = human NMT2 (Homo sapiens, UniProt O60551); assay: Inhibition of N-myristoyltransferase NMT2; type: biochemical
human NMT2, sequence (O60551 whole entry): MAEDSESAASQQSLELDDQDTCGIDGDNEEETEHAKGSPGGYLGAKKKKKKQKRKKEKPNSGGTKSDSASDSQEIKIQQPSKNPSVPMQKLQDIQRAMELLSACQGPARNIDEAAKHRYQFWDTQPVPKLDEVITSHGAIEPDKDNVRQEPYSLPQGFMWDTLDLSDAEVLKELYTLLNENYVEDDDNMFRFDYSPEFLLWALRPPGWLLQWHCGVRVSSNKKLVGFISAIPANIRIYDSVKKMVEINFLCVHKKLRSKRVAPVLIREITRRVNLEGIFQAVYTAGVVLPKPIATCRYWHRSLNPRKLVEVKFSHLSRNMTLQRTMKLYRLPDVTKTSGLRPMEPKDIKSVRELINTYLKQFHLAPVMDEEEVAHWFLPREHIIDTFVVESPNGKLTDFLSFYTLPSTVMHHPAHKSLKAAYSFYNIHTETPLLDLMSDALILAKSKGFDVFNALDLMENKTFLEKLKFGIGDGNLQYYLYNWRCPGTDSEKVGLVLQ

[17] = tested on: Breast cultured human cancer cells; settings: mean among sensitive cell lines, cited from earlier work
[18] = tested on: Leukemia cultured human cancer cells; settings: mean among sensitive cell lines, cited from earlier work
hERG = hERG (Homo sapiens, UniProt Q12809); assay: Preclinical hERG interaction testing
hERG, sequence (Q12809 whole entry): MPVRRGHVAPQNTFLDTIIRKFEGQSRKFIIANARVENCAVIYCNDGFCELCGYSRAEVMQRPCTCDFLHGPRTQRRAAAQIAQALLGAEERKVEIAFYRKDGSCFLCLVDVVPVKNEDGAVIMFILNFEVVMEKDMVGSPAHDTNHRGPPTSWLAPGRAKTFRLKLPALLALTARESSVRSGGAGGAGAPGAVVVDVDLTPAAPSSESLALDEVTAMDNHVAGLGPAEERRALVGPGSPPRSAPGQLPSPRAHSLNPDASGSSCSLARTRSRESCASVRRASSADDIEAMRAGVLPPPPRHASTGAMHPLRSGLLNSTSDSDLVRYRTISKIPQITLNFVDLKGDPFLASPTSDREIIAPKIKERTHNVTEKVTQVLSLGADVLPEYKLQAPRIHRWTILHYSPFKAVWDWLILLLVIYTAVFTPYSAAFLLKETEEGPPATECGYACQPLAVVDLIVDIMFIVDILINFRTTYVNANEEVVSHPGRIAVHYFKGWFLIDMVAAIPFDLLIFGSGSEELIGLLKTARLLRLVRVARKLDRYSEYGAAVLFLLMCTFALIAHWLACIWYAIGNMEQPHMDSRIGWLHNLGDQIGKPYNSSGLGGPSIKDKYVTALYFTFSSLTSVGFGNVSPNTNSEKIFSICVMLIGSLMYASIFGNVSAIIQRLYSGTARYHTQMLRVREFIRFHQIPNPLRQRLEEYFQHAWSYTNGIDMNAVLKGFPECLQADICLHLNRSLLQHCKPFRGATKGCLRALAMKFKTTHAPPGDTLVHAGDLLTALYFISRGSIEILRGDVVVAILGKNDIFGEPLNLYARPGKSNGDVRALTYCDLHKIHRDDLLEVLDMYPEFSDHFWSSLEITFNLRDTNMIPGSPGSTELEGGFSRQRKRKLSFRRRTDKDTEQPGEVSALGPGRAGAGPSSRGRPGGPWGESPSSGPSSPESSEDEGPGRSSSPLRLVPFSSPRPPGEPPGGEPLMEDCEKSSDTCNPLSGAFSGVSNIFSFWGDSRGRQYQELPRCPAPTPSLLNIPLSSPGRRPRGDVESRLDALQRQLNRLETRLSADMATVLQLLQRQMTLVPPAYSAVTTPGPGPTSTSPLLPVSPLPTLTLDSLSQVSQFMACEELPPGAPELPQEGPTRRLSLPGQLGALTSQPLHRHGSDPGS

[19] = tested on: Lung cultured human cancer cells; settings: mean among sensitive cell lines, cited from earlier work; for IC50: read-out: IC50 mean +/− SD
[20] = first panel, read-out: EC50 mean +/− SD
[21] = Table 1B third line, Patient 115-002-001, Day 15 as printed
[22] = second panel, read-out: IC50 mean +/− SD

Cc1c(NS(=O)(=O)c2c(Cl)cc(-c3ccnc(N4CCNCC4)c3)cc2Cl)c(CC(C)C)nn1C [PCLX-001, 2,6-dichloro-N-(3-isobutyl-1,5-dimethyl-1H-pyrazol-4-yl)-4-(2-(piperazin-1-yl)pyridin-4-yl)benzene sulfonamide]
dose limiting toxicity [1]: diarrhea was dose limiting
IC50 [2]: 120 ± 48.2 nM
IC50 [3]: 230 ± 183 nM
EC50 [4, 20]: 80.9 nM
IC50 ([4]; second panel): 138 ± 55.8 nM
IC50 ([4]; third panel): 230 ± 107 nM
IC50 [5]: 76.7 ± 7.6 nM
BTK modification and downstream signaling [6]: profoundly inhibited
IC50 [7]: 198 ± 134 nM
IC50 [8]: 85.4 ± 59.2 nM
IC50 [9]: 153 ± 63.5 nM
hematopoietic profile and biochemistry ([10]; Patient 1): remained normal; also recorded: no evidence of toxicity
protocol defined dose limiting toxicities ([10]; Patient 1, 28 day cycle): did not experience any dose limiting toxicities; also recorded: no protocol defined dose limiting toxicities
hematopoietic profile and biochemistry ([10]; Patient 2): remained normal
protocol defined dose limiting toxicities ([10]; Patient 2): no protocol defined dose limiting toxicities
drug related toxicities ([10]; Patient 3, daily PCLX-001, two 28 day cycles): No drug related toxicities were identified
oral bioavailability [11]: complete oral bioavailability
AUC(0-inf) ([12]; Table 1B fourth line, Patient 115-002-001, Day 15): 2640 ng·h/mL
AUC(0-inf) [12, 21]: 2360 ng·h/mL
AUC(0-t) [12, 21]: 1700 ng·h/mL
Cmax [12, 21]: 278 ng/mL
half-life [12, 21]: 16.4 h
Allometric prediction of human MTD ([13]; scaled from dog MTD): 137 mg mg/70 kg
Allometric prediction of human MTD ([13]; scaled from mouse MTD): 180 mg mg/70 kg
Allometric prediction of human MTD ([13]; scaled from rat MTD): 1300 mg mg/70 kg
effective dose relative to the dose that produced mouse toxicity (implanted human tumors): greater than 50%
inhibition of cancer cell growth in vitro [14]: inhibition of cell growth; also recorded: markedly inhibited
Maximally Tolerated Dose daily oral administration [15]: 35 mg/kg
Cmax ([15]; in vivo, po): 46000 ng/mL
half-life ([15]; in vivo, po): 1.6 h
disease response (Lugano criteria, computed tomography day 28) ([16]; Patient 1, refractory relapsed DLBCL, 20 mg oral daily): disease progression; also recorded: progression of the volume of lymphoma
response in lymph nodes ([16]; Patient 2, DLBCL, 20 mg oral daily): progressive disease in lymph nodes
response of hepatic metastatic disease on CT ([16]; Patient 2, DLBCL, 20 mg oral daily, about two months): marked reduction of volume of hepatic metastatic disease; also recorded: marked tumor response in hepatic metastases; also recorded: marked tumor regression; also recorded: regression of a malignant lesion in the liver
response assessment scans ([16]; Patient 3, leiomyosarcoma, after two 28 day cycles): progressive disease
inhibition of human NMT2 (human NMT2): potent
EC50 [17, 20]: 101 ± 96.4 nM
IC50 [17, 22]: 161 ± 47.9 nM
EC50 [18, 20]: 97.9 ± 81.3 nM
IC50 [18, 22]: 189 ± 87.8 nM
hERG interaction (hERG): no significant hERG interaction
EC50 [19, 20]: 151 ± 88.2 nM
IC50 ([19]; second panel): 184 ± 82.8 nM
IC50 ([19]; third panel): 154 ± 111 nM
